ChEMBL document CHEMBL4507277

Columns and labels:
[1] = test system: Tyrosine-protein kinase ABL1 (Homo sapiens), P00519 [E255K]; conditions: Compound concentration 1000.0 nM
[2] = test system: Tyrosine-protein kinase ABL1 (Homo sapiens), P00519 [F317L]; conditions: Compound concentration 1000.0 nM
[3] = test system: Tyrosine-protein kinase ABL1 (Homo sapiens), P00519 [T315I]; conditions: Compound concentration 1000.0 nM
[4] = target: Atypical kinase COQ8B, mitochondrial (Homo sapiens) (UniProt Q96D53); conditions: Compound concentration 1000.0 nM
[5] = target: Aurora kinase C (Homo sapiens) (UniProt Q9UQB9); conditions: Compound concentration 1000.0 nM
[6] = target: Calcium/calmodulin-dependent protein kinase type 1D (Homo sapiens) (UniProt Q8IU85); conditions: Compound concentration 1000.0 nM
[7] = target: Calcium/calmodulin-dependent protein kinase type IV (Homo sapiens) (UniProt Q16566); conditions: Compound concentration 1000.0 nM
[8] = target: Cyclin-dependent kinase 3 (Homo sapiens) (UniProt Q00526); conditions: Compound concentration 1000.0 nM
[9] = target: Casein kinase I isoform alpha-like (Homo sapiens) (UniProt Q8N752); conditions: Compound concentration 1000.0 nM
[10] = test system: Epidermal growth factor receptor (Homo sapiens), P00533 [UNDEFINED MUTATION]; conditions: Compound concentration 1000.0 nM
[11] = test system: Epidermal growth factor receptor (Homo sapiens), P00533 [UNDEFINED MUTATION]; conditions: Compound concentration 1000.0 nM; remark: listed apart in the source
[12] = target: Ephrin type-A receptor 2 (Homo sapiens) (UniProt P29317); conditions: Compound concentration 1000.0 nM
[13] = target: Ephrin type-B receptor 6 (Homo sapiens) (UniProt O15197); conditions: Compound concentration 1000.0 nM
[14] = target: Receptor tyrosine-protein kinase erbB-2 (Homo sapiens) (UniProt P04626); conditions: Compound concentration 1000.0 nM
[15] = target: Mitogen-activated protein kinase 4 (Homo sapiens) (UniProt P31152); conditions: Compound concentration 1000.0 nM
[16] = target: Fibroblast growth factor receptor 1 (Homo sapiens) (UniProt P11362); conditions: Compound concentration 1000.0 nM
[17] = test system: Receptor-type tyrosine-protein kinase FLT3 (Homo sapiens), P36888 [UNDEFINED MUTATION]; conditions: Compound concentration 1000.0 nM
[18] = target: Interleukin-1 receptor-associated kinase 4 (Homo sapiens) (UniProt Q9NWZ3); conditions: Compound concentration 1000.0 nM
[19] = target: Tyrosine-protein kinase JAK1 (Homo sapiens) (UniProt P23458); conditions: Compound concentration 1000.0 nM
[20] = target: Serine/threonine-protein kinase STK11 (Homo sapiens) (UniProt Q15831); conditions: Compound concentration 1000.0 nM
[21] = target: Serine/threonine-protein kinase MARK1 (Homo sapiens) (UniProt Q9P0L2); conditions: Compound concentration 1000.0 nM
[22] = target: MAP/microtubule affinity-regulating kinase 4 (Homo sapiens) (UniProt Q96L34); conditions: Compound concentration 1000.0 nM
[23] = target: Dual specificity mitogen-activated protein kinase kinase 2 (Homo sapiens) (UniProt P36507); conditions: Compound concentration 1000.0 nM
[24] = target: Maternal embryonic leucine zipper kinase (Homo sapiens) (UniProt Q14680); conditions: Compound concentration 1000.0 nM
[25] = target: Misshapen-like kinase 1 (Homo sapiens) (UniProt Q8N4C8); conditions: Compound concentration 1000.0 nM
[26] = target: Muscle, skeletal receptor tyrosine-protein kinase (Homo sapiens) (UniProt O15146); conditions: Compound concentration 1000.0 nM
[27] = target: Serine/threonine-protein kinase Nek10 (Homo sapiens) (UniProt Q6ZWH5); conditions: Compound concentration 1000.0 nM
[28] = target: Serine/threonine-protein kinase PAK 1 (Homo sapiens) (UniProt Q13153); conditions: Compound concentration 1000.0 nM
[29] = test system: Phosphatidylinositol 4,5-bisphosphate 3-kinase catalytic subunit alpha isoform (Homo sapiens), P42336 [I800L]; conditions: Compound concentration 1000.0 nM
[30] = target: Serine/threonine-protein kinase PLK3 (Homo sapiens) (UniProt Q9H4B4); conditions: Compound concentration 1000.0 nM
[31] = target: Protein kinase C iota type (Homo sapiens) (UniProt P41743); conditions: Compound concentration 1000.0 nM
[32] = target: cGMP-dependent protein kinase 1 (Homo sapiens) (UniProt Q13976); conditions: Compound concentration 1000.0 nM
[33] = target: Serine/threonine-protein kinase RIO3 (Homo sapiens) (UniProt O14730); conditions: Compound concentration 1000.0 nM
[34] = target: Ribosomal protein S6 kinase alpha-3 (Homo sapiens) (UniProt P51812); conditions: Compound concentration 1000.0 nM
[35] = target: Uncharacterized serine/threonine-protein kinase SBK3 (Homo sapiens) (UniProt P0C264); conditions: Compound concentration 1000.0 nM
[36] = target: SNF-related serine/threonine-protein kinase (Homo sapiens) (UniProt Q9NRH2); conditions: Compound concentration 1000.0 nM
[37] = target: Serine/threonine-protein kinase 33 (Homo sapiens) (UniProt Q9BYT3); conditions: Compound concentration 1000.0 nM
[38] = target: Serine/threonine-protein kinase 36 (Homo sapiens) (UniProt Q9NRP7); conditions: Compound concentration 1000.0 nM
[39] = target: Serine/threonine-protein kinase TAO1 (Homo sapiens) (UniProt Q7L7X3); conditions: Compound concentration 1000.0 nM
[40] = target: TGF-beta receptor type-1 (Homo sapiens) (UniProt P36897); conditions: Compound concentration 1000.0 nM
[41] = target: Serine/threonine-protein kinase tousled-like 1 (Homo sapiens) (UniProt Q9UKI8); conditions: Compound concentration 1000.0 nM
[42] = target: Testis-specific serine/threonine-protein kinase 1 (Homo sapiens) (UniProt Q9BXA7); conditions: Compound concentration 1000.0 nM
[43] = target: Serine/threonine-protein kinase 32B (Homo sapiens) (UniProt Q9NY57); conditions: Compound concentration 1000.0 nM
[44] = target: Histamine H2 receptor (Homo sapiens) (UniProt P25021); conditions: Compound concentration 10.0 uM
[45] = target: Sigma non-opioid intracellular receptor 1 (Homo sapiens) (UniProt Q99720); conditions: Compound concentration 10.0 uM
Sequence of Sigma non-opioid intracellular receptor 1 (Homo sapiens) (Q99720 whole entry): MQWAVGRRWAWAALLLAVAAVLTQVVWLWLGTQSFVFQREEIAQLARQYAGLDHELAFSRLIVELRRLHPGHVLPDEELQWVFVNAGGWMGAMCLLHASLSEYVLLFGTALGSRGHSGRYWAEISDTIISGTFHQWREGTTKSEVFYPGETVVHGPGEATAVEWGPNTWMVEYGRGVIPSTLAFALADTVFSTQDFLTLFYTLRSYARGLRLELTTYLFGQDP

Sequence of Epidermal growth factor receptor (Homo sapiens), P00533 [UNDEFINED MUTATION] (P00533 whole entry, looked up, change not shown): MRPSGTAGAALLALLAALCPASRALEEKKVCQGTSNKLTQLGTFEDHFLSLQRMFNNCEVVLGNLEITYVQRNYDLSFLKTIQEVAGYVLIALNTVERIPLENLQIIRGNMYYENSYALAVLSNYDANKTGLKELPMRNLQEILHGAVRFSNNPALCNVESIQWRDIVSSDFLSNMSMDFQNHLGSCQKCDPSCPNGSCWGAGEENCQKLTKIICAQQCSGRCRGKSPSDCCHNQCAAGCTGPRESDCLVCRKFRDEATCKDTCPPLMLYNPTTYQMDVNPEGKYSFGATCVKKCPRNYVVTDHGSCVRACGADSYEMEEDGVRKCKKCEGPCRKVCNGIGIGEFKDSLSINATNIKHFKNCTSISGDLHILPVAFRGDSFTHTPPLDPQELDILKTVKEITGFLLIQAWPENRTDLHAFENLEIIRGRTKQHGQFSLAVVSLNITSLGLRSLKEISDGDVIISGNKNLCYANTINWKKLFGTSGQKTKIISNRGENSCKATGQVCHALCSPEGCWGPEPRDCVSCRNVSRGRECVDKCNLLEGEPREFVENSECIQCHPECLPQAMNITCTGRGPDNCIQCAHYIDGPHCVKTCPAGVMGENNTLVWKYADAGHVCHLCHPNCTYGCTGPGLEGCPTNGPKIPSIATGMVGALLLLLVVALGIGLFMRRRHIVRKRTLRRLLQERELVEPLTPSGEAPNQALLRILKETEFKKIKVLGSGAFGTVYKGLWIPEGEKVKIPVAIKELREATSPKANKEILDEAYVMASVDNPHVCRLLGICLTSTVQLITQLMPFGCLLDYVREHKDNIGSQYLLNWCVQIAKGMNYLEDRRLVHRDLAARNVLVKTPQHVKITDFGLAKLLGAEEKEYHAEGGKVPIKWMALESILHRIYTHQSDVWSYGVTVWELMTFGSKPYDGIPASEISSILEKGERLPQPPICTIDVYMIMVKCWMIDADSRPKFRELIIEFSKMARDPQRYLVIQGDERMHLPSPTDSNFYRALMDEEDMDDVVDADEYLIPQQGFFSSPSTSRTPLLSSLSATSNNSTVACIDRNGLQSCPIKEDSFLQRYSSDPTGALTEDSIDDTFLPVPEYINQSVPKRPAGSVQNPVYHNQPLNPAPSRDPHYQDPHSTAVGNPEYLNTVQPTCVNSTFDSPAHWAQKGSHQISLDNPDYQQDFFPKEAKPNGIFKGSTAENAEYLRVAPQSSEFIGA
Sequence of Serine/threonine-protein kinase 36 (Homo sapiens) (Q9NRP7 whole entry): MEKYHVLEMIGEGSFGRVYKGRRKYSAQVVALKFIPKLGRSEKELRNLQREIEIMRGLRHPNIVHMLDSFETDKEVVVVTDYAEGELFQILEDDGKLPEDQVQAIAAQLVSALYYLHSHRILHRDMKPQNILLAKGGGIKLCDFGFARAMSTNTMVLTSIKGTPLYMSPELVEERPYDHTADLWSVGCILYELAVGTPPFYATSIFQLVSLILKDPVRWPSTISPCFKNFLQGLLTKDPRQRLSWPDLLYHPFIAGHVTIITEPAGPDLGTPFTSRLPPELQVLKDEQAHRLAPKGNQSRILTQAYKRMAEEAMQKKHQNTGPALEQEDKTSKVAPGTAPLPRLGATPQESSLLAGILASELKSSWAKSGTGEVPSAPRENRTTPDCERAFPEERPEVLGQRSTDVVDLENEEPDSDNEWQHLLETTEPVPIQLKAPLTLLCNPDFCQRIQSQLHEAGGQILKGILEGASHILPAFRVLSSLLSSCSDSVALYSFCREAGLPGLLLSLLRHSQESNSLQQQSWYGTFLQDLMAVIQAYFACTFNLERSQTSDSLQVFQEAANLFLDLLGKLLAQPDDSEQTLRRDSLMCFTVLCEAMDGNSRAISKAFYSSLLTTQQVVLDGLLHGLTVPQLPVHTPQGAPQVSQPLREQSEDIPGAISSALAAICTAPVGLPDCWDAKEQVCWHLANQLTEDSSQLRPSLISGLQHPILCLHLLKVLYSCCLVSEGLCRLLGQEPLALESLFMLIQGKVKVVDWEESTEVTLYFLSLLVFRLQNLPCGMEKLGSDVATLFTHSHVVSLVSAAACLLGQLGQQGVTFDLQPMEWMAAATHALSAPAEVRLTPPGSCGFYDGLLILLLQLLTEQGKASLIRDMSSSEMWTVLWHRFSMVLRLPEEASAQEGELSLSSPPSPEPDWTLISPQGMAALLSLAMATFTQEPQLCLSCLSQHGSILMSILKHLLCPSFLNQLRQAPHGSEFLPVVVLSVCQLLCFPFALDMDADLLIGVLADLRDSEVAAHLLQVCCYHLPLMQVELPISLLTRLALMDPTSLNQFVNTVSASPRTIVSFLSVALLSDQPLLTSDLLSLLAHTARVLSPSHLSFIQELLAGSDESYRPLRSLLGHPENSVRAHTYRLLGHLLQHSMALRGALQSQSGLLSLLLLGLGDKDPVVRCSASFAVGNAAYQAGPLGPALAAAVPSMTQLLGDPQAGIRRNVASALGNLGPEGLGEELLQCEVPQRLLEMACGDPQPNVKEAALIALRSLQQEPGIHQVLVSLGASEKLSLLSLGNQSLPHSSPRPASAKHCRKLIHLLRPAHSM
Sequence of SNF-related serine/threonine-protein kinase (Homo sapiens) (Q9NRH2 whole entry): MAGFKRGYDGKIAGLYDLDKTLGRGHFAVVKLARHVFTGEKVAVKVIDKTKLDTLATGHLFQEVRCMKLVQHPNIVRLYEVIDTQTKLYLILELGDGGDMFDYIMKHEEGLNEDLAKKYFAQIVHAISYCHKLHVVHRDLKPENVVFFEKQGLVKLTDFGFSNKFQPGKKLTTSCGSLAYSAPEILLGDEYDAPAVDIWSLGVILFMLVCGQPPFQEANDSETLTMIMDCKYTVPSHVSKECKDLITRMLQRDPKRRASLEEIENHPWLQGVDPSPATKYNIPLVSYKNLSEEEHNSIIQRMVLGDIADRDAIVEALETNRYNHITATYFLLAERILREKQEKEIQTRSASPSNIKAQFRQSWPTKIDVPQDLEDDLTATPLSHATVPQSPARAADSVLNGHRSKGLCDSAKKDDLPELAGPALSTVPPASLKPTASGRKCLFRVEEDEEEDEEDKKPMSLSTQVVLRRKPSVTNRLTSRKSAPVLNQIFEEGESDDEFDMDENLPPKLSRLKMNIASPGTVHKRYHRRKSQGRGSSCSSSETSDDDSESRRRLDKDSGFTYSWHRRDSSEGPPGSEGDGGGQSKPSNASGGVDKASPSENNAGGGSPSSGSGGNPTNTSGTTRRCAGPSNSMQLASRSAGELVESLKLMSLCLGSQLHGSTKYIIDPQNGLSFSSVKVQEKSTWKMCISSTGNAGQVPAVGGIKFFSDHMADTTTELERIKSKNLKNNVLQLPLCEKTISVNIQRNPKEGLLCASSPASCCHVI
Sequence of Uncharacterized serine/threonine-protein kinase SBK3 (Homo sapiens) (P0C264 whole entry): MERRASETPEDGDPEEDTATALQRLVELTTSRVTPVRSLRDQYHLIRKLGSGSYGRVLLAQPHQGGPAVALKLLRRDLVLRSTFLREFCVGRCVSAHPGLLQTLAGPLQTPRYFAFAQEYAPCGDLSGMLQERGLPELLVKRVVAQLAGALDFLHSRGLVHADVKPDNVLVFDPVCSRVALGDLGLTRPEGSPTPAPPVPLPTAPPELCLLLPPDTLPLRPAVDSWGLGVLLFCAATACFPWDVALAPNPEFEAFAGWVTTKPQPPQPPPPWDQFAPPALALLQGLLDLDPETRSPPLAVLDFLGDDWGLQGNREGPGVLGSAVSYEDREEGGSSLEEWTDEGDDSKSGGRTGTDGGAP
Sequence of Calcium/calmodulin-dependent protein kinase type 1D (Homo sapiens) (Q8IU85 whole entry, looked up): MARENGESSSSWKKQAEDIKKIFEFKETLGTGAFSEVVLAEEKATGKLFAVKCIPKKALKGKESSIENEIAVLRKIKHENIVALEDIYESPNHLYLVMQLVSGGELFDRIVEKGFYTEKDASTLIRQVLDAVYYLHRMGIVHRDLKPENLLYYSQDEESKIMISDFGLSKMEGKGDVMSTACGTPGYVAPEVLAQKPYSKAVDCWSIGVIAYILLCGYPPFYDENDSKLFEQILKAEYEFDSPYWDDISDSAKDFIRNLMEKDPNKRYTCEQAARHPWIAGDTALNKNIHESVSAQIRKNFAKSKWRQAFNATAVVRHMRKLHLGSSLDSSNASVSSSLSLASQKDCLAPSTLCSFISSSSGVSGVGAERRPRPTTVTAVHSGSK
Sequence of MAP/microtubule affinity-regulating kinase 4 (Homo sapiens) (Q96L34 whole entry): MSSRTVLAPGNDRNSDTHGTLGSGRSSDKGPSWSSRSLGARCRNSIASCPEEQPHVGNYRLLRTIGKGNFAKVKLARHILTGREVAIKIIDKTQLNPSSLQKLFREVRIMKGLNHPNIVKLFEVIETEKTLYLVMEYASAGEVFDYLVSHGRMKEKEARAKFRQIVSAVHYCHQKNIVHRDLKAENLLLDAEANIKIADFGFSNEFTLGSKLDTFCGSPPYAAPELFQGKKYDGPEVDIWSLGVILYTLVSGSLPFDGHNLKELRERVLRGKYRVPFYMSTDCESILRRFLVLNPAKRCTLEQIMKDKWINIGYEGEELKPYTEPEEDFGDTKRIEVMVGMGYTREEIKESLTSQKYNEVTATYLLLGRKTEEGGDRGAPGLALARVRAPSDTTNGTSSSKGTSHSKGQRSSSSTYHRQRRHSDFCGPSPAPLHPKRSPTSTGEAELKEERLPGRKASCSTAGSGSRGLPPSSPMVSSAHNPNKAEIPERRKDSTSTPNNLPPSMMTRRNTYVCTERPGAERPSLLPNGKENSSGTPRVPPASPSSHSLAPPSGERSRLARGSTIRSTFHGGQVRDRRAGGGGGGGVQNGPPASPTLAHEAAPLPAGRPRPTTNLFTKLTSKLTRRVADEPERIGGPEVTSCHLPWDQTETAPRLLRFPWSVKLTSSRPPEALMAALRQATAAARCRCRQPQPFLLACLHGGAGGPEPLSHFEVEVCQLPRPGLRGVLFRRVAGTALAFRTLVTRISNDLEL

## CCS(=O)(=O)c1cc2cc(C[C@@](O)(CC(C)(C)c3ccc(F)cc3C(N)=O)C(F)(F)F)[nH]c2cn1
[1]
  residual activity: 90%
[2]
  residual activity: 90%
[3]
  residual activity: 67%
[4]
  residual activity: 100%
[5]
  residual activity: 81%
[6]
  residual activity: 89%
[7]
  residual activity: 100%
[8]
  residual activity: 73%
[9]
  residual activity: 99%
[10]
  residual activity: 69%
[11]
  residual activity: 100%
[12]
  residual activity: 67%
[13]
  residual activity: 100%
[14]
  residual activity: 100%
[15]
  residual activity: 84%
[16]
  residual activity: 95%
[17]
  residual activity: 86%
[18]
  residual activity: 100%
[19]
  residual activity: 89%
[20]
  residual activity: 100%
[21]
  residual activity: 100%
[22]
  residual activity: 100%
[23]
  residual activity: 67%
[24]
  residual activity: 100%
[25]
  residual activity: 79%
[26]
  residual activity: 60%
[27]
  residual activity: 88%
[28]
  residual activity: 100%
[29]
  residual activity: 70%
[30]
  residual activity: 99%
[31]
  residual activity: 100%
[32]
  residual activity: 89%
[33]
  residual activity: 74%
[34]
  residual activity: 100%
[35]
  residual activity: 94%
[36]
  residual activity: 98%
[37]
  residual activity: 91%
[38]
  residual activity: 98%
[39]
  residual activity: 73%
[40]
  residual activity: 100%
[41]
  residual activity: 0%
[42]
  residual activity: 96%
[43]
  residual activity: 100%
[44]
  inhibition: 6.84%
[45]
  inhibition: 8.26%

## CCS(=O)(=O)c1cc2cc(C[C@](O)(CC(C)(C)c3ccc(F)cc3C(N)=O)C(F)(F)F)[nH]c2cn1
[1]
  residual activity: 92%
[2]
  residual activity: 100%
[3]
  residual activity: 100%
[4]
  residual activity: 78%
[5]
  residual activity: 91%
[6]
  residual activity: 100%
[7]
  residual activity: 100%
[8]
  residual activity: 100%
[9]
  residual activity: 100%
[10]
  residual activity: 83%
[11]
  residual activity: 100%
[12]
  residual activity: 81%
[13]
  residual activity: 100%
[14]
  residual activity: 100%
[15]
  residual activity: 100%
[16]
  residual activity: 94%
[17]
  residual activity: 95%
[18]
  residual activity: 100%
[19]
  residual activity: 96%
[20]
  residual activity: 100%
[21]
  residual activity: 100%
[22]
  residual activity: 100%
[23]
  residual activity: 95%
[24]
  residual activity: 100%
[25]
  residual activity: 89%
[26]
  residual activity: 94%
[27]
  residual activity: 100%
[28]
  residual activity: 95%
[29]
  residual activity: 73%
[30]
  residual activity: 93%
[31]
  residual activity: 100%
[32]
  residual activity: 92%
[33]
  residual activity: 91%
[34]
  residual activity: 93%
[35]
  residual activity: 100%
[36]
  residual activity: 100%
[37]
  residual activity: 97%
[38]
  residual activity: 100%
[39]
  residual activity: 88%
[40]
  residual activity: 100%
[41]
  residual activity: 75%
[42]
  residual activity: 94%
[43]
  residual activity: 94%
[44]
  inhibition: 12.3%
[45]
  inhibition: 10.1%
